In US12653821B2 (SHANGHAI BOCIMED PHARMACEUTICAL CO., LTD., priority 2020, dated 2026):
Values after ≈ are worked out from the molar mass of the structure shown.

Columns and labels:
[1] = In vitro dissolution simulation experiment, pH 7.4 phosphate buffer; format: physicochemical; conditions: 37° C.
Experimental: The mixtures were shaken at 37° C.

physchem = conditions: 37 °C, thermodynamic from solid
Experimental: The mixtures were shaken at 37° C. for 24 h and filtered through 0.45 μm aqueous-phase filter membranes. The filtrates were collected and the solubility was determined by high performance liquid chromatography. pH3, pH4, pH5 and pH6 represent acetate buffer solutions, and pH7, pH7.4, pH8 and pH9 represent phosphate buffer solutions.

[2] = humans; cited from earlier work
[3] = Pharmacokinetic experiment in rats (plasma cariprazine, LC-MS/MS); conditions: intramuscular injection at 9 mg/kg
Experimental: In the whole experiment, the animals from the intramuscular injection group were given ad libitum access to food and water, and those from the oral intragastrical group were fasted overnight before administration and given access to food 4 h after administration.
Plasma sample collection: about 150 μL of blood was collected from the jugular vein (whole blood was centrifuged within 30 min to isolate plasma) and placed in a tube containing anticoagulant EDTA-K2, and after treatment, plasma was stored in a freezer at −70° C. before use.
Pretreatment of plasma sample: to 30 μL of plasma sample was added 200 μL of internal standard solution (40 ng/mL Glipizide acetonitrile solution); the mixture was vortexed for 1 min and centrifuged at 5800 rpm at 4° C. for 10 min; 100 μL of supernatant was transferred to a new plate and 1 μL of solution was taken for LC-MS/MS analysis.
Secondary mass spectrometry analysis was performed using an electrospray ion source (Turbo spray) in the multiple reaction monitoring (MRM) mode under the positive ion detection mode.

| SMILES | Concentration, 1 (h) [1] [ng/mL] | Concentration, 5 (h) [1] [ng/mL] | Concentration, 7 (h) [1] [ng/mL] | Concentration, 24 (h) [1] [ng/mL] | solubility at 24 h (physchem; pH 5, aqueous buffer) [µg/mL] | solubility at 24 h (physchem; pH 3, aqueous buffer) [µg/mL] | solubility at 24 h (physchem; pH 7, aqueous buffer) [µg/mL] | solubility at 24 h (physchem; pH 9, aqueous buffer) [µg/mL] | cariprazine clearance [2] [days] | length of release among the crystalline forms [3] |
| --- | --- | --- | --- | --- | --- | --- | --- | --- | --- | --- |
| CN(C)C(=O)NC1CCC(CCN2CCN(c3cccc(Cl)c3Cl)CC2)CC1 (centres unmarked) [Amorphous cariprazine embonate, cariprazine embonate] | 11940 | 9580 | 7080 | 9900 | – | – | – | – | – | – |
| CN(C)C(=O)N[C@H]1CC[C@H](CCN2CCN(c3cccc(Cl)c3Cl)CC2)CC1.Cl [Cariprazine hydrochloride] | – | – | – | – | 10800 | – | – | – | – | – |
| CN(C)C(=O)N[C@H]1CC[C@H](CCN2CCN(c3cccc(Cl)c3Cl)CC2)CC1 [Cariprazine, cariprazine] | – | – | – | – | 243 (≈ 568 µM) | 1360 (≈ 3190 µM) | 3.2 (≈ 7.49 µM) | 1.4 (≈ 3.28 µM) | 3 to 9 | – |
| CN(C)C(=O)NC1CCC(CCN2CCN(c3cccc(Cl)c3Cl)CC2)CC1 (centres unmarked) [Crystalline form A of cariprazine embonate] | 1000 | 4100 | 3900 | 2500 | – | – | – | – | – | best length of release |
| CN(C)C(=O)NC1CCC(CCN2CCN(c3cccc(Cl)c3Cl)CC2)CC1 (centres unmarked) [Crystalline form B of cariprazine embonate] | 5300 | 5200 | 2200 | 1700 | – | – | – | – | – | – |
| CN(C)C(=O)NC1CCC(CCN2CCN(c3cccc(Cl)c3Cl)CC2)CC1 (centres unmarked) [Crystalline form G of cariprazine embonate] | 1300 | 2280 | 1840 | 8050 | – | – | – | – | – | – |
